From the supplement of paper PMC10307832

How the values were obtained:
Experiment in all cases: relative viability (nuclei count vs DMSO), 5 days (fraction); higher = more cells survive
NCI-H1395 = system: NCI-H1395
Summary of the method: (§1)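 Lung cancer cell lines were pin-tool dosed in 1536-well plates on the day after seeding, with either a lone drug or a fixed anchor-drug dose plus five library-drug doses (not always all listed) in √10 steps. Nuclei were counted on 4× images after 5 days. Relative viability is the ratio of treated-well to vehicle-well nuclei counts, with each value a median of duplicate plates.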

NCI-H650 = system: NCI-H650
Summary of the method: as §1

NCI-H2170 = system: NCI-H2170
Summary of the method: as §1

HARA = system: HARA
Summary of the method: as §1

LU99A = system: LU99A
Summary of the method: as §1

NCI-H1793 = system: NCI-H1793
Summary of the method: as §1

NCI-H23 = system: NCI-H23
Summary of the method: as §1

LXF-289 = system: LXF-289
Summary of the method: as §1

NCI-H1666 = system: NCI-H1666
Summary of the method: as §1

NCI-H2023 = system: NCI-H2023
Summary of the method: as §1

PC-3 [JPC-3] = system: PC-3 [JPC-3]
Summary of the method: as §1

NCI-H460 = system: NCI-H460
Summary of the method: as §1

NCI-H1915 = system: NCI-H1915
Summary of the method: as §1

LCLC-97TM1 = system: LCLC-97TM1
Summary of the method: as §1

SK-LU-1 = system: SK-LU-1
Summary of the method: as §1

A-427 = system: A-427
Summary of the method: as §1

LOU-NH91 = system: LOU-NH91
Summary of the method: as §1

NCI-H2126 = system: NCI-H2126
Summary of the method: as §1

NCI-H441 = system: NCI-H441
Summary of the method: as §1

BEN = system: BEN
Summary of the method: as §1

NCI-H322M = system: NCI-H322M
Summary of the method: as §1

NCI-H1755 = system: NCI-H1755
Summary of the method: as §1

NCI-H1944 = system: NCI-H1944
Summary of the method: as §1

O=c1[nH]c2ccccc2n1C1CCN(CCCC(c2ccc(F)cc2)c2ccc(F)cc2)CC1 [Pimozide] + Cc1nc(Nc2ncc(C(=O)Nc3c(C)cccc3Cl)s2)cc(N2CCN(CCO)CC2)n1 [Dasatinib] (partner 0.075 µM)
relative viability (NCI-H1395; first compound 0.08 µM): 0.388
relative viability (NCI-H1395; first compound 0.253 µM): 0.382
relative viability (NCI-H1395; first compound 0.8 µM): 0.355
relative viability (NCI-H1395; first compound 2.53 µM): 0.403
relative viability (NCI-H1395; first compound 8 µM): 0.361
relative viability (NCI-H650; first compound 0.08 µM): 0.501
relative viability (NCI-H650; first compound 0.253 µM): 0.454
relative viability (NCI-H650; first compound 0.8 µM): 0.453
relative viability (NCI-H650; first compound 2.53 µM): 0.487
relative viability (NCI-H650; first compound 8 µM): 0.498
relative viability (NCI-H2170; first compound 0.08 µM): 0.432
relative viability (NCI-H2170; first compound 0.253 µM): 0.475
relative viability (NCI-H2170; first compound 0.8 µM): 0.627
relative viability (NCI-H2170; first compound 2.53 µM): 0.555
relative viability (NCI-H2170; first compound 8 µM): 0.599
relative viability (HARA; first compound 0.253 µM): 0.262
relative viability (HARA; first compound 0.8 µM): 0.275
relative viability (HARA; first compound 2.53 µM): 0.247
relative viability (HARA; first compound 8 µM): 0.304
relative viability (LU99A; first compound 0.08 µM): 0.539
relative viability (LU99A; first compound 0.253 µM): 0.527
relative viability (LU99A; first compound 0.8 µM): 0.531
relative viability (LU99A; first compound 2.53 µM): 0.459
relative viability (LU99A; first compound 8 µM): 0.459
relative viability (NCI-H1793; first compound 0.253 µM): 0.388
relative viability (NCI-H1793; first compound 0.8 µM): 0.343
relative viability (NCI-H1793; first compound 2.53 µM): 0.391
relative viability (NCI-H1793; first compound 8 µM): 0.35
relative viability (NCI-H23; first compound 0.08 µM): 0.887
relative viability (NCI-H23; first compound 0.253 µM): 0.84
relative viability (NCI-H23; first compound 0.8 µM): 0.71
relative viability (NCI-H23; first compound 2.53 µM): 0.679
relative viability (NCI-H23; first compound 8 µM): 0.802
relative viability (LXF-289; first compound 0.08 µM): 0.236
relative viability (LXF-289; first compound 0.253 µM): 0.277
relative viability (LXF-289; first compound 0.8 µM): 0.241
relative viability (LXF-289; first compound 2.53 µM): 0.205
relative viability (LXF-289; first compound 8 µM): 0.226
relative viability (NCI-H1666; first compound 0.08 µM): 0.752
relative viability (NCI-H1666; first compound 0.253 µM): 0.814
relative viability (NCI-H1666; first compound 0.8 µM): 0.82
relative viability (NCI-H1666; first compound 2.53 µM): 0.708
relative viability (NCI-H1666; first compound 8 µM): 0.684
relative viability (NCI-H2023; first compound 0.08 µM): 0.497
relative viability (NCI-H2023; first compound 0.253 µM): 0.547
relative viability (NCI-H2023; first compound 0.8 µM): 0.518
relative viability (NCI-H2023; first compound 2.53 µM): 0.438
relative viability (NCI-H2023; first compound 8 µM): 0.451
relative viability (PC-3 [JPC-3]; first compound 0.08 µM): 0.529
relative viability (PC-3 [JPC-3]; first compound 0.253 µM): 0.912
relative viability (PC-3 [JPC-3]; first compound 0.8 µM): 0.867
relative viability (PC-3 [JPC-3]; first compound 2.53 µM): 0.892
relative viability (PC-3 [JPC-3]; first compound 8 µM): 0.897
relative viability (NCI-H460; first compound 0.08 µM): 0.537
relative viability (NCI-H460; first compound 0.253 µM): 0.486
relative viability (NCI-H460; first compound 0.8 µM): 0.529
relative viability (NCI-H460; first compound 2.53 µM): 0.483
relative viability (NCI-H460; first compound 8 µM): 0.447
relative viability (NCI-H1915; first compound 0.08 µM): 0.328
relative viability (NCI-H1915; first compound 0.253 µM): 0.246
relative viability (NCI-H1915; first compound 0.8 µM): 0.214
relative viability (NCI-H1915; first compound 2.53 µM): 0.322
relative viability (NCI-H1915; first compound 8 µM): 0.303
relative viability (LCLC-97TM1; first compound 0.08 µM): 0.94
relative viability (LCLC-97TM1; first compound 0.253 µM): 0.811
relative viability (LCLC-97TM1; first compound 0.8 µM): 0.797
relative viability (LCLC-97TM1; first compound 2.53 µM): 0.818
relative viability (LCLC-97TM1; first compound 8 µM): 0.626
relative viability (SK-LU-1; first compound 0.08 µM): 0.2
relative viability (SK-LU-1; first compound 0.253 µM): 0.21
relative viability (SK-LU-1; first compound 0.8 µM): 0.184
relative viability (SK-LU-1; first compound 2.53 µM): 0.186
relative viability (SK-LU-1; first compound 8 µM): 0.168
relative viability (A-427; first compound 0.08 µM): 0.697
relative viability (A-427; first compound 0.253 µM): 0.701
relative viability (A-427; first compound 0.8 µM): 0.681
relative viability (A-427; first compound 2.53 µM): 0.654
relative viability (A-427; first compound 8 µM): 0.665
relative viability (LOU-NH91; first compound 0.08 µM): 0.44
relative viability (LOU-NH91; first compound 0.253 µM): 0.564
relative viability (LOU-NH91; first compound 0.8 µM): 0.537
relative viability (LOU-NH91; first compound 2.53 µM): 0.572
relative viability (LOU-NH91; first compound 8 µM): 0.579
relative viability (NCI-H2126; first compound 0.08 µM): 0.687
relative viability (NCI-H2126; first compound 0.253 µM): 0.548
relative viability (NCI-H2126; first compound 0.8 µM): 0.568
relative viability (NCI-H2126; first compound 2.53 µM): 0.607
relative viability (NCI-H2126; first compound 8 µM): 0.605
relative viability (NCI-H441; first compound 0.08 µM): 0.86
relative viability (NCI-H441; first compound 0.253 µM): 0.724
relative viability (NCI-H441; first compound 0.8 µM): 0.605
relative viability (NCI-H441; first compound 2.53 µM): 0.387
relative viability (NCI-H441; first compound 8 µM): 0.521
relative viability (BEN; first compound 0.08 µM): 0.279
relative viability (BEN; first compound 0.253 µM): 0.364
relative viability (BEN; first compound 0.8 µM): 0.26
relative viability (BEN; first compound 2.53 µM): 0.329
relative viability (BEN; first compound 8 µM): 0.412
relative viability (NCI-H322M; first compound 0.253 µM): 0.234
relative viability (NCI-H322M; first compound 0.8 µM): 0.247
relative viability (NCI-H322M; first compound 2.53 µM): 0.257
relative viability (NCI-H322M; first compound 8 µM): 0.231
relative viability (NCI-H1755; first compound 0.08 µM): 0.372
relative viability (NCI-H1755; first compound 0.253 µM): 0.446
relative viability (NCI-H1755; first compound 0.8 µM): 0.426
relative viability (NCI-H1755; first compound 2.53 µM): 0.456
relative viability (NCI-H1755; first compound 8 µM): 0.348
relative viability (NCI-H1944; first compound 0.08 µM): 0.212
relative viability (NCI-H1944; first compound 0.253 µM): 0.203
relative viability (NCI-H1944; first compound 0.8 µM): 0.183
relative viability (NCI-H1944; first compound 2.53 µM): 0.225
relative viability (NCI-H1944; first compound 8 µM): 0.197
